# Assay results taken from BindingDB's records for doi:10.1111/cbdd.12843 (Key Laboratory for Neurodegenerative Diseases of Ministry …, 2017).
# pIC50: −log10 of the molar value.
# Molecular target: D(2) dopamine receptor (Homo sapiens, UniProt P14416)
# Assay: Dopamine D2 Receptor Activity Assay
# Conditions: 37 °C
# Protocol: D2 receptor/G protein α16a co-transfected HEK293 cells (from the Shanghai Institute of Materia Medica, Chinese Academy of Sciences) were seeded in 96-wellplates and incubated overnight at 37 °C. The media were then removed, and 40 μL of 10 μM Fluo-4/AM (a calcium fluorescent probe) (Invitrogen Corporation, Carlsbad, CA, USA) was added. The plates were then incubated for 40 min at 37 °C. After the supernatant was discarded and the cells were washed with calcium buffer, 50 μL of calcium buffer containing tested compounds at the dosage range from 0.01 nM to 10 μM was added, and the plates were incubated for 10 min. The fluorescence values at an emission wavelength of 525 nm and an excitation wavelength of 485 nm were detected by the FlexStation II microplate reader (Molecular Devices, San Francisco, CA, USA), starting 15 s after 25 μL of calcium buffer containing 50 nM dopamine (an agonist of the dopamine D2 receptor) (Sigma-Aldrich, Saint Louis, MO,USA) was automatically added by the instrument.
# Sequence of D(2) dopamine receptor (P14416 whole entry): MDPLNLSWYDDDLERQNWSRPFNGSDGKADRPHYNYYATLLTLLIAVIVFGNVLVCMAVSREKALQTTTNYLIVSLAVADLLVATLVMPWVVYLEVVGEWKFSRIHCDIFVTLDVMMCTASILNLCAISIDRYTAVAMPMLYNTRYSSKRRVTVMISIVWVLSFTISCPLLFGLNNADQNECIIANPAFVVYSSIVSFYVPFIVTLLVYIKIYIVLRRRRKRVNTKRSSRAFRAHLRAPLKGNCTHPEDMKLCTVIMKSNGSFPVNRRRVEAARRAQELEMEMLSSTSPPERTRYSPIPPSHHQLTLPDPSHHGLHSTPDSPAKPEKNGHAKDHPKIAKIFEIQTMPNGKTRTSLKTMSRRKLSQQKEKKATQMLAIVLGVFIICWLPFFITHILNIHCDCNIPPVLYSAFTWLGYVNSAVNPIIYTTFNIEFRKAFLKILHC
structure (smiles),measurement,value
O=C1C[C@@H](c2ccc(F)cc2)Oc2cc(OCCCCN3CCC(c4noc5cc(F)ccc45)CC3)cc(O)c21 [5-Hydroxy-2-(4-fluorophenyl)-7-(4-(4-(6-fluorobenzo[d]isoxazol-3-yl)piperidin-1-yl)butoxy)chroman-4-one (7e)],pIC50,7.06
COc1ccc([C@@H]2CC(=O)c3c(O)cc(OCCCCN4CCN(c5ccccc5OC)CC4)cc3O2)cc1 [5-Hydroxy-2-(4-methoxyphenyl)-7-(4-(4-(2-methoxyphenyl)piperazin-1-yl)butoxy)chroman-4-one (7a)],pIC50,6.69
COc1ccc([C@@H]2CC(=O)c3c(O)cc(OCCCN4CCN(c5ccccc5OC)CC4)cc3O2)cc1 [5-Hydroxy-2-(4-methoxyphenyl)-7-(4-(4-(2-methoxyphenyl)piperazin-1-yl)propoxy)chroman-4-one (7f)],pIC50,6.66
COc1ccc([C@@H]2CC(=O)c3c(O)cc(OCCCCN4CCC(c5noc6cc(F)ccc56)CC4)cc3O2)cc1 [5-Hydroxy-2-(4-methoxyphenyl)-7-(4-(4-(6-fluorobenzo[d]isoxazol-3-yl)piperidin-1-yl)butoxy)chroman-4-one (7d)],pIC50,7.29
COc1ccc([C@@H]2CC(=O)c3c(O)cc(OCCCN4CCC(c5noc6cc(F)ccc56)CC4)cc3O2)cc1 [5-Hydroxy-2-(4-methoxyphenyl)-7-(4-(4-(6-fluorobenzo[d]isoxazol-3-yl)piperidin-1-yl)propoxy)chroman-4-one (7g)],pIC50,6.94
COc1ccccc1N1CCN(CCCCOc2cc(O)c3c(c2)O[C@H](c2ccc(C)cc2)CC3=O)CC1 [5-Hydroxy-2-(4-methylphenyl)-7-(4-(4-(2-methoxyphenyl)piperazin-1-yl)butoxy)chroman-4-one (7b)],pIC50,6.46
COc1ccccc1N1CCN(CCCCOc2cc(O)c3c(c2)O[C@H](c2ccc(F)cc2)CC3=O)CC1 [5-Hydroxy-2-(fluorophenyl)-7-(4-(4-(2-methoxyphenyl)piperazin-1-yl)butoxy)chroman-4-one (7c)],pIC50,7.24
